Measurements published in patent US11167039B2, “MET antibody drug conjugates” (priority 2016, dated 2021).
“Also recorded” adds a separate entry of the source.

Experiments:
L55 = test: Cell killing, L55; type: cell-based, human; parameters: key: Sensitive; Resistant; details: L55, NSCLC
Experimental: (§1) Briefly described, 2-3×10^3 cells/well in 100 μL of culture medium may be plated in 96 well plates and incubated overnight at 37° C., 5% CO2. The MET-ADCs, MET antibody(ies), control MMAE or control hIgG4 conjugated to MMAE with cysteine conjugation antibody(ies) may be diluted 1:3 in serum-free culture medium starting from 100 nM (final) in 50 μL as 3× concentrations to the HT-29 cells. At the end of an additional 5-6 days of cell growth at 37° C. in a humidified incubator with 5% CO2, the plates may be equilibrated to room temperature for 30 minutes and 100 μL/well of CellTiter-Glo® reagent (Promega Corp., Fitchburg, Wis.) may then be added to assess cell viability. Cell viability may be determined by measuring luminescence.
(§2) Various tumor cell lines and normal human cells may be tested for MET-ADC induced cell killing activity essentially as described above in Example 10 as assessed for MET receptor density. MET cell surface density was determined by indirect immunofluorescence staining of cell surface antigens on cultured cells using QIFIKIT (Dako). […] Following a forty-five minute incubation, cells may be incubated for 1 hour on ice with FITC conjugated antibody diluted 1:50 in FACS buffer. Then cells may be washed and receptor numbers may be determined by indirect immunofluorescence staining of the QIFIKIT beads using a Becton Dickinson LSRII flow cytometer.

HuAEC = test: Cell killing, non-tumor HuAEC; type: cell-based, human; parameters: key: Sensitive; Resistant; details: aortic endothelia cell
Experimental: as §1, §2

Cal27 = test: Cell killing, Cal27; type: cell-based, human; parameters: key: Sensitive; Resistant; details: Cal27, head and neck cancer
Experimental: as §1, §2

HCC827 = test: Cell killing, HCC827; type: cell-based, human; parameters: key: Sensitive; Resistant; details: HCC827, NSCLC
Experimental: as §1, §2

[1] = system: MET expressing tumor cells; test: Correlation of tumor cell MET expression level and sensitivity to MET-ADC; type: cell-based
Experimental: as §1, §2

KP-4 = test: Cell killing, KP-4; type: cell-based, human; parameters: key: Sensitive; Resistant; details: KP-4, PANC Ca
Experimental: as §1, §2

Hs746T xenografts = test: Hs746T gastric cancer xenograft model; type: in vivo, mouse; details: 3 mg/kg once per week for 4 weeks
Experimental: Female athymic nude mice age 6- to 7-weeks old are available commercially, including from Harlan Laboratories (Indianapolis, Ind.). The mice are allowed to acclimate for one week and fed ad libitum on a normal low fat (4.5%) diet, which may be continued for the duration of the study. Tumor cells may be purchased from ATCC and may be cultured in cell culture media such as RPMI 1640 (Life Technologies) with L-glutamine, 25 mM HEPES supplemented with 10% FBS and 1 mM Na Pyruvate. Cells may be detached, washed with serum free medium and then resuspended at a final concentration of 50×10^6 cells/mL in serum free RPMI 1640. Tumor cells, approximately 5×10^6, may be injected subcutaneously in the rear flank of subject mice in a 1:1 mixture of serum free growth medium and Matrigel (Becton Dickinson, Bedford, Mass.). Tumor and body weight measurements may be performed twice weekly. Prior to treatment, mice can be randomized based on tumor size using a randomization algorithm. Treatments may be started when the average tumor volume reaches 100 mm^3. […]
MET-ADCs and control hIgG4-MMAE may be prepared in Phosphate Buffered Saline (PBS) prior to dose. Tumor size may be determined by caliper measurements. […] Log volume data can be analyzed with two-way repeated measures ANOVA by time and treatment using SAS PROC MIXED software (SAS Institutes Inc, Cary, N.C.). […]

humen fresh naïve PBMC = test: Cell killing, fresh naïve PBMC; type: cell-based, human; parameters: key: Sensitive; Resistant; details: 3 donors
Experimental: as §1, §2

Aspc-1 = test: Cell killing, Aspc-1; type: cell-based, human; parameters: key: Sensitive; Resistant; details: Aspc-1, PANC Ca
Experimental: as §1, §2

For “MET-ADC#1: emibetuzumab lysine-conjugated via (2,5-dioxopyrrolidin-1-yl) 2-azidoacetate and Octyne-β-Glucn-MMAE”, the “Sensitive/ Resistant” value (L55) was “R”, the “Sensitive/ Resistant” value (HuAEC) was “R” and the “Sensitive/ Resistant” value (Cal27) was “S”. For the same substance, the “Sensitive/ Resistant” value (HCC827) was “S”, the “killing activity compared with MET-ADC #6” value ([1]; similar experiments using other cells) was “superior killing activity than MET-ADC #6” and the “approximate threshold of MET cell surface density for tumor cell killing” value ([1]; tumor cells sensitive to MMAE, not secreting HGF) was > 32,000 receptor per cells. For the same substance, the “Sensitive/ Resistant” value (KP-4) was “S”, the antitumor efficacy (Hs746T xenografts) was “significantly greater antitumor efficacy than the IgG4 Lys-MMAE control treatments; also recorded: durable and complete tumor regression” and the “Sensitive/ Resistant” value (humen fresh naïve PBMC) was “R”. The “Sensitive/ Resistant” value (Aspc-1) was “S”.
